Source: article PMC12040169 (PLOS Biology, 2025)

Test: in vitro
Details: human, hela cells, % viability

Compound | viability at 28.5 h, 10 µM [%]
c1ccc(OCCN2CCC(Oc3cncc(OCCN4CCOCC4)n3)C2)cc1 (stereo not drawn) [CBK084499] | 113
O=C1/C(=C/c2ccc3c(c2)OCO3)SC(=S)N1CCCC(=O)N1CCCc2ccccc21 [CBK264676] | 98.2
CN1CCN(c2cc(NCC(c3cccnc3)N(C)C)nc3ccnn23)CC1 (stereo not drawn) [CBK037157] | 106
O=C(COc1ccc(S(=O)(=O)N2CCCC2)cc1Cl)NCc1ccccn1 [CBK268412] | 91.3
Cc1cn(CC(=O)N2CCC(Cn3cncn3)(C3CCCCC3)CC2)c(=O)[nH]c1=O [CBK136800] | 88.4
O=C(NCc1ccc2c(c1)OCO2)c1cnc2sccn2c1=O [CBK287446] | 91
CC[C@@H]1COCCN1C(=O)c1sc2ccccc2c1Cl [CBK103641] | 90.3
CN1CCOc2ccccc2C(=O)NC/C=C/CC2(CCCNC2)C1=O (stereo not drawn) [CBK292027] | 107
Cc1cc(/C=C(/C#N)c2nc3ccccc3[nH]2)c(C)n1-c1ccc(N2CCOCC2)cc1 [CBK263792] | 94
O=C(/C=C/c1ccccc1)NC(NCc1cccnc1)C(Cl)(Cl)Cl (stereo not drawn) [CBK261804] | 95.3
O=S(=O)(c1ccc(Cl)cc1)N1CCN(S(=O)(=O)N2CCCCC2)CC1 [CBK267075] | 96.1
CCc1nc2ccc(C(=O)N(C)C(C)C)cn2c1N(C)CCN1CCOCC1 [CBK146436] | 95.2
CC(C)CCOc1nccnc1-c1ccc2c(c1)OCO2 [CBK106711] | 104
COc1ccccc1-c1cn2ccnc2c(N(C)CCN(C)C)n1 [CBK066156] | 97.5
COc1ccc2c(c1)CC(=O)NC21CCN(C(=O)CCCC(=O)O)CC1 [CBK047208] | 90.3
CN1CCN(c2cc(-c3cccc(CO)c3)nc3ccnn23)CC1 [CBK037099] | 98.1
CC1CCN(Cc2ccc(-c3cn(CC(=O)NCc4ccc(Br)cc4F)nn3)cc2)CC1 [CBK165756C] | 91.1
Clc1ccc(CN2CCC(Oc3nccnc3OC3CCCCC3)CC2)cc1 [CBK082856T] | 101
CC(=O)c1ccc(C(=O)Nc2ccc3nc(C)sc3c2)cc1 [CBK287310] | 95.5
O=C(N/N=C/c1ccc(O)cc1O)c1[nH]c2ccc([N+](=O)[O-])cc2c1-c1ccccc1 [CBK263328] | 69.7
COC(=O)c1nn(-c2ccccc2)c2cc([N+](=O)[O-])ccc12 [CBK115321] | 99.3
O=c1[nH]c2cc3nn[nH]c3cc2[nH]1 [CBK018154] | 99.9

Compound | viability at 28.5 h, 10 µM [%]
CC(NC(=O)c1ccccc1Cn1cccn1)c1ccccn1 (stereo not drawn) [CBK281374] | 86.3
O=C(NCC1(c2ccccc2)CCCC1)c1ccc(NC(=O)C2COc3ccccc3O2)cc1 (stereo not drawn) [CBK266558] | 97.9
O=C1CNC(=S)N1c1cccc(C(F)(F)F)c1 [CBK288398] | 104
CCOC(=O)[C@H]1CC[C@]2(CC1)CN(C)C(=O)c1ccccc1O2 [CBK284848] | 101
CCN1CCN(c2ncnc3c2cnn3-c2cccc(C)c2)CC1 [CBK265814] | 93.8
CC(C)(CO)CCCn1cncc1-c1cnn(-c2ccc(F)cc2)c1 [CBK281466] | 117
O=C(Cc1cccc(F)c1)NCCn1nc(-c2ccco2)ccc1=O [CBK283708] | 86.3
Cc1cc(Cl)ccc1CNC(=O)c1ccc(-c2ccoc2)nc1 [CBK156254] | 101
Cc1cc(N2CCC(N(C)C)CC2)nc(N)n1 [CBK167267] | 106
Cc1ccc(Cn2ncc3c(N4CCCC4)ncnc32)cc1 [CBK287601] | 72.5
N#Cc1c(NC(=O)CSc2nnc(-c3ccc(Cl)cc3)o2)oc(-c2ccccc2)c1-c1ccccc1 [CBK267655] | 93.9
O=C1CC(c2ccccc2)CC(NCc2ccc3c(c2)OCO3)=C1C(=S)Nc1ccccc1 (stereo not drawn) [CBK264890] | 94.4
CC(C)CCNCc1ccc(-c2cn(CC(=O)NCCc3ccccc3)nn2)cc1 [CBK164740] | 95.9
CN(C)c1ccc(CC(=O)N2CCCc3ccccc32)cc1 [CBK200347] | 83.6
Cc1c(C(=O)NC2(c3ccc(F)cc3)CCCC2)cnn1C [CBK283978] | 90.9
O=C(Nc1cnc(-c2cccc(C(F)(F)F)c2)c(-c2ccco2)n1)c1ccccn1 [CBK036873] | 88.5
Cn1nccc1C(=O)N1CCN(c2ncccn2)CC1 [CBK288240] | 90.7
CCN(CC(=O)N1CCN(C(=O)c2ccc(C)cc2)CC1)C(=O)OC [CBK027051] | 82
O=S1(=O)CCN(Cc2cn(-c3ccccc3)nn2)CC1 [CBK113103] | 88.9
O=S(=O)(c1cccs1)N1CCc2ccccc2C1 [CBK044531] | 113
Cc1ccc(Sc2ncccc2C(=O)Nc2ccnn2Cc2cccnc2)cc1C [CBK296980] | 109
N#CCCCN1CCC(Oc2nccnc2OCc2cccc3ccccc23)CC1 [CBK161571] | 99.3

Compound | viability at 28.5 h, 10 µM [%]
Cc1noc(C)c1NC(=O)c1ccccn1 [CBK200299] | 95.6
Cc1ccc(Cl)cc1C(=O)N[C@H]1C[C@@H](c2nnc(CO)n2C2CC2)C1 [CBK306746] | 92.8
COc1ccc(-c2nnc3c4ccccc4c(C)nn23)cc1S(=O)(=O)NC(C)c1ccccc1 (stereo not drawn) [CBK266605] | 104
O=S(=O)(c1cccs1)N1CCC2(CC1)OCCO2 [CBK057295] | 95.1
O=C(CSc1nnc(-c2cccnc2)n1-c1cccc(C(F)(F)F)c1)c1ccc(F)cc1 [CBK267599] | 87.9
O=C(NC1CCN(CC(F)(F)F)C1=O)c1cc(Cl)ccn1 (stereo not drawn) [CBK305223] | 98.6
COC(=O)c1cc(C)sc1NC(=S)Nc1ccn(Cc2ccc(Br)cc2)n1 [CBK266934] | 99.6
O=C(Nc1ccc(N2CCNCC2)nc1)C1CCCO1 (stereo not drawn) [CBK004748T] | 85.7
O=S(=O)(Nc1cccc(-c2cnco2)c1)c1ccc(Br)cc1C(F)(F)F [CBK067118] | 93.4
O=C(C[C@@H]1O[C@H](CNCc2cccc(Cl)c2)[C@@H](O)[C@H]1O)N1CCc2ccccc21 [CBK288918] | 89
O=C(NCCN1CCOCC1)c1cccc(S(=O)(=O)N2CCCCCC2)c1 [CBK266668] | 97.3
CC(COC(C)(C)C)Oc1nccnc1OCc1ccc(Cl)c(Cl)c1 (stereo not drawn) [CBK161607] | 113
O=C(N[C@H]1CCN2C(=O)c3cc(-c4cccs4)ccc3NC(=O)[C@@H]2C1)c1cnccn1 [CBK289559] | 106
O=C(CN(Cc1ccc(Cl)cc1Cl)S(=O)(=O)c1ccccc1)Nc1c(F)cccc1F [CBK265801] | 99.1
CCOC(=O)Nc1ccc2c(c1)N(C(=O)CCN(C)C)c1ccccc1CC2 [CBK278193C] | 89.9
CC(=O)c1cccc(-c2cnc(Nc3ccc(N4CCOCC4)cc3)c3nccn23)c1 [CBK091217] | 91.5
Cc1cccc(C=C(Cl)c2nc3sc(C(=O)O)c(C)c3c(=O)[nH]2)c1 [CBK295626] | 91.6
COc1ccc(C(=O)C=c2[nH]c(=O)c(=Cc3ccc(C(=O)O)cc3)s2)cc1 [CBK295614] | 99.6
Cc1ccc(S(=O)(=O)N2CCSC2C(=O)O)cc1 (stereo not drawn) [CBK286964] | 86.8
CNc1ccc(C(O)(C(F)(F)F)C(F)(F)F)cc1C(O)(C(F)(F)F)C(F)(F)F [CBK268070] | 96.6
CC(C)(C)OC(=O)n1cnc(CC#N)c1 [CBK000202] | 83.1
CCC1c2ccsc2CCN1CC(O)COCc1ccco1 (stereo not drawn) [CBK303992] | 97.3

Compound | viability at 28.5 h, 10 µM [%]
O=C(NC(Cc1c[nH]c2ccccc12)C(=O)NC1CCCCC1)OCc1ccccc1 (stereo not drawn) [CBK085144] | 89
Cc1ccc(-c2noc(-c3cccnc3N3CCC(C(=O)O)CC3)n2)cc1 [CBK287260] | 90.3
O=S(=O)(c1ccc(F)c(Cl)c1)n1ccc2c(N3CCNCC3)nccc21 [CBK059059C] | 90.7
O=C(O)c1ccc(CSc2nc3ccccc3[nH]2)cc1 [CBK286892] | 82
CN(C)c1cccc(-c2cncc(NCCCN3CCOCC3)n2)c1 [CBK065635] | 94.8
COc1ccc(C(CC(=O)O)C(=O)O)cc1OC (stereo not drawn) [CBK261943] | 90.4
O=S(=O)(Nc1ccc(N2CCCCC2)cc1)c1cccc2cccnc12 [CBK263077] | 93.1
N#CCCn1cc(C(=O)N2CCOCC2)c(-c2ccccc2)n1 [CBK306207] | 86
O=C(c1cc(F)c(F)cc1F)N1CCC2(CCCN(CCS(=O)(=O)c3ccccc3)C2)C1 (stereo not drawn) [CBK132003] | 105
Clc1ccc(COc2nccnc2OCc2cccnc2)cc1Cl [CBK161597] | 85
Cc1noc(C)c1S(=O)(=O)Nc1c(C(=O)O)sc2ncccc12 [CBK049988] | 99.5
COc1ccc(S(=O)(=O)N(CC(=O)N2CCC(C(N)=O)CC2)c2ccccc2)cc1 [CBK265301] | 108
O=C(O)c1ccc(S(=O)(=O)c2ccc3c(c2)C(=O)N(c2cc(C(=O)O)cc(C(=O)O)c2)C3=O)cc1 [CBK262824] | 92.8
COc1ccc([C@@]23CCC(NC(=O)CCc4cccnc4)C[C@@H]2N(C)CC3)cc1OC (stereo partly drawn) [CBK003770] | 92.8
COc1ccccc1C1(CCNCc2ccc3c(c2)OCO3)CCOC(C)(C)C1 (stereo not drawn) [CBK265599G] | 92.3
CCN1CCN(Cc2cnc(-c3ccccn3)nc2)CC1=O [CBK306678] | 99.9
CC(C)c1nccn1-c1ccc(NC(=O)Cn2ccnc2)cc1 [CBK281381] | 88.9
O=C(CN(c1ccc(Cl)cc1)S(=O)(=O)c1ccccc1)Nc1ccc(F)cc1 [CBK264013] | 90.5
C[C@H](NC(=O)N1CCC(c2nc(-c3ccccc3)c3ccccn23)CC1)c1ccccc1 [CBK047086] | 92.7

Same assay, conditions: human, hela cells, % viability, bulk resorufin, single well

Compound | viability at 28.5 h, 10 µM [%]
Cc1nocc1C(=O)N1CCC2(CC1)OCc1ccccc1O2 [CBK061470] | 105
CS(=O)(=O)c1ccc(-c2ccc3c(c2)COC2(CCN(C(=O)CC4CCCCC4)CC2)O3)cn1 [CBK160596] | 93.3
